From PubChem BioAssay (NCI)
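Interpolation was linear, between the two tested concentrations surrounding the appropriate level; five concentrations were tested over 48 hours in 96-well plates. At the TGI there is no net growth.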

Tests used:
Test in all cases: NCI tumour cell line growth inhibition, 48 h
OVCAR-5 ovarian = system: OVCAR-5 ovarian
SF-295 CNS = system: SF-295 CNS
OVCAR-3 ovarian = system: OVCAR-3 ovarian
EKVX NSCLC = system: EKVX NSCLC
A549 NSCLC = system: A549 NSCLC
NCI-H226 lung = system: NCI-H226 lung
HOP-92 NSCLC = system: HOP-92 NSCLC
DU-145 prostate = system: DU-145 prostate
COLO 205 colon = system: COLO 205 colon
U251 CNS = system: U251 CNS
SNB-19 CNS = system: SNB-19 CNS
ACHN renal = system: ACHN renal
SK-MEL-5 melanoma = system: SK-MEL-5 melanoma
SW-620 colon = system: SW-620 colon
SNB-75 CNS = system: SNB-75 CNS
MDA-MB-435 = system: MDA-MB-435
SK-MEL-2 melanoma = system: SK-MEL-2 melanoma
NCI-H23 lung = system: NCI-H23 lung
HOP-62 NSCLC = system: HOP-62 NSCLC
NCI/ADR-RES ovarian = system: NCI/ADR-RES ovarian
HS 578T breast = system: HS 578T breast
SF-539 CNS = system: SF-539 CNS
OVCAR-4 ovarian = system: OVCAR-4 ovarian
SR leukemia = system: SR leukemia
PC-3 prostate = system: PC-3 prostate
TK-10 renal = system: TK-10 renal
NCI-H460 lung = system: NCI-H460 lung
KM12 colon = system: KM12 colon
K-562 leukemia = system: K-562 leukemia
SF-268 CNS = system: SF-268 CNS
MCF7 breast = system: MCF7 breast
SK-OV-3 ovarian = system: SK-OV-3 ovarian
CCRF-CEM leukemia = system: CCRF-CEM leukemia
SN12C renal = system: SN12C renal
UACC-62 melanoma = system: UACC-62 melanoma
T-47D breast = system: T-47D breast
NCI-H522 lung = system: NCI-H522 lung
SK-MEL-28 melanoma = system: SK-MEL-28 melanoma
HCT-15 colon = system: HCT-15 colon
MDA-N = system: MDA-N
786-0 renal = system: 786-0 renal
M14 melanoma = system: M14 melanoma
BT-549 breast = system: BT-549 breast
HT29 colon = system: HT29 colon
UACC-257 melanoma = system: UACC-257 melanoma
MALME-3M melanoma = system: MALME-3M melanoma
A498 renal = system: A498 renal
MOLT-4 leukemia = system: MOLT-4 leukemia
MDA-MB-231 breast = system: MDA-MB-231 breast
HCT-116 colon = system: HCT-116 colon
IGROV1 ovarian = system: IGROV1 ovarian
CAKI-1 renal = system: CAKI-1 renal
RXF 393 renal = system: RXF 393 renal
RPMI-8226 leukemia = system: RPMI-8226 leukemia
UO-31 renal = system: UO-31 renal
OVCAR-8 ovarian = system: OVCAR-8 ovarian
LOX IMVI melanoma = system: LOX IMVI melanoma
HL-60(TB) leukemia = system: HL-60(TB) leukemia

`C=C(C)COc1ccc2c(c1)CCC1C2CCC2(C)C(=O)/C(=N/O)CC12` (stereo not given) showed a TGI (OVCAR-5 ovarian) of 18.7 µM, a TGI (SF-295 CNS) of 19.3 µM and a TGI (OVCAR-3 ovarian) of 14.6 µM. For the same molecule, the TGI (EKVX NSCLC) was 9.32 µM, the TGI (A549 NSCLC) was 26.4 µM and the TGI (NCI-H226 lung) was 26.6 µM. It also gave a TGI (HOP-92 NSCLC) of 10.4 µM, a TGI (DU-145 prostate) of 7.93 µM and a TGI (COLO 205 colon) of 14.4 µM. The TGI (U251 CNS) was 16.3 µM, the TGI (SNB-19 CNS) was 25.4 µM and the TGI (ACHN renal) was 15.2 µM. The TGI (SK-MEL-5 melanoma) was 21.1 µM, the TGI (SW-620 colon) was 9.94 µM and the TGI (SNB-75 CNS) was 11.9 µM. The TGI (MDA-MB-435) was 7.61 µM, the TGI (SK-MEL-2 melanoma) was 14.1 µM and the TGI (NCI-H23 lung) was 15.5 µM. The TGI (HOP-62 NSCLC) was 21.2 µM, the TGI (NCI/ADR-RES ovarian) was 21.8 µM and the TGI (HS 578T breast) was 27.7 µM. It also gave a TGI (SF-539 CNS) of 26.3 µM, a TGI (OVCAR-4 ovarian) of 9.69 µM and a TGI (SR leukemia) of 4.14 µM. It also gave a TGI (PC-3 prostate) of 10.5 µM, a TGI (TK-10 renal) of 5.58 µM and a TGI (NCI-H460 lung) of 3.14 µM. The TGI (KM12 colon) was 5.77 µM, the TGI (K-562 leukemia) was 9.96 µM and the TGI (SF-268 CNS) was 23.3 µM. The TGI (MCF7 breast) was 10.5 µM, the TGI (SK-OV-3 ovarian) was 22.4 µM and the TGI (CCRF-CEM leukemia) was 6.61 µM. For the same molecule, the TGI (SN12C renal) was 14 µM, the TGI (UACC-62 melanoma) was 28.5 µM and the TGI (T-47D breast) was 8.61 µM. For the same molecule, the TGI (NCI-H522 lung) was 17.4 µM, the TGI (SK-MEL-28 melanoma) was 33.3 µM and the TGI (HCT-15 colon) was 7.52 µM. It also gave a TGI (MDA-N) of 14.7 µM, a TGI (786-0 renal) of 13 µM and a TGI (M14 melanoma) of 14.4 µM. For the same molecule, the TGI (BT-549 breast) was 21.2 µM, the TGI (HT29 colon) was 2.72 µM and the TGI (UACC-257 melanoma) was 23.5 µM. For the same molecule, the TGI (MALME-3M melanoma) was 29.1 µM, the TGI (A498 renal) was 24.3 µM and the TGI (MOLT-4 leukemia) was 6.05 µM. It also gave a TGI (MDA-MB-231 breast) of 4.93 µM, a TGI (HCT-116 colon) of 3.08 µM and a TGI (IGROV1 ovarian) of 4.6 µM. For the same molecule, the TGI (CAKI-1 renal) was 10.2 µM, the TGI (RXF 393 renal) was 6.78 µM and the TGI (RPMI-8226 leukemia) was 7.54 µM. For the same molecule, the TGI (UO-31 renal) was 15.3 µM, the TGI (OVCAR-8 ovarian) was 24.1 µM and the TGI (LOX IMVI melanoma) was 13.9 µM. The TGI (HL-60(TB) leukemia) was 5.92 µM.
`Nc1c(S(=O)(=O)O)cc(S(=O)(=O)O)c2ccc(N=Nc3ccccc3)c(O)c12` was tested, and the TGI (OVCAR-5 ovarian) was over 100 µM, the TGI (SF-295 CNS) was over 100 µM and the TGI (OVCAR-3 ovarian) was over 100 µM. It also gave a TGI (EKVX NSCLC) of over 100 µM, a TGI (A549 NSCLC) of over 100 µM and a TGI (NCI-H226 lung) of over 100 µM. It also gave a TGI (HOP-92 NSCLC) of over 100 µM, a TGI (DU-145 prostate) of over 100 µM and a TGI (COLO 205 colon) of over 100 µM. For the same molecule, the TGI (U251 CNS) was over 100 µM, the TGI (SNB-19 CNS) was over 100 µM and the TGI (ACHN renal) was over 100 µM. For the same molecule, the TGI (SK-MEL-5 melanoma) was over 100 µM, the TGI (SW-620 colon) was over 100 µM and the TGI (SNB-75 CNS) was over 100 µM. For the same molecule, the TGI (MDA-MB-435) was over 100 µM, the TGI (SK-MEL-2 melanoma) was over 100 µM and the TGI (NCI-H23 lung) was over 100 µM. For the same molecule, the TGI (HOP-62 NSCLC) was over 100 µM, the TGI (NCI/ADR-RES ovarian) was over 100 µM and the TGI (HS 578T breast) was over 100 µM. For the same molecule, the TGI (SF-539 CNS) was over 100 µM, the TGI (OVCAR-4 ovarian) was over 100 µM and the TGI (SR leukemia) was over 100 µM. The TGI (PC-3 prostate) was over 100 µM, the TGI (TK-10 renal) was over 100 µM and the TGI (NCI-H460 lung) was over 100 µM. The TGI (KM12 colon) was over 100 µM, the TGI (K-562 leukemia) was over 100 µM and the TGI (SF-268 CNS) was over 100 µM. It also gave a TGI (MCF7 breast) of over 100 µM, a TGI (SK-OV-3 ovarian) of over 100 µM and a TGI (CCRF-CEM leukemia) of over 100 µM. The TGI (SN12C renal) was over 100 µM, the TGI (UACC-62 melanoma) was over 100 µM and the TGI (T-47D breast) was over 100 µM. For the same molecule, the TGI (NCI-H522 lung) was over 100 µM, the TGI (SK-MEL-28 melanoma) was over 100 µM and the TGI (HCT-15 colon) was over 100 µM. For the same molecule, the TGI (MDA-N) was over 100 µM, the TGI (786-0 renal) was over 100 µM and the TGI (M14 melanoma) was over 100 µM. It also gave a TGI (BT-549 breast) of over 100 µM, a TGI (HT29 colon) of over 100 µM and a TGI (UACC-257 melanoma) of over 100 µM. It also gave a TGI (MALME-3M melanoma) of over 100 µM, a TGI (A498 renal) of over 100 µM and a TGI (MDA-MB-231 breast) of over 100 µM. The TGI (HCT-116 colon) was over 100 µM, the TGI (IGROV1 ovarian) was over 100 µM and the TGI (CAKI-1 renal) was over 100 µM. The TGI (RXF 393 renal) was over 100 µM, the TGI (RPMI-8226 leukemia) was over 100 µM and the TGI (UO-31 renal) was over 100 µM. The TGI (OVCAR-8 ovarian) was over 100 µM, the TGI (LOX IMVI melanoma) was over 100 µM and the TGI (HL-60(TB) leukemia) was over 100 µM.
